Laboratory results published in paper PMC9150099, “Preventing Influenza A Virus Infection by Mixed Inhibition of Neuraminidase and Hemagglutinin by Divalent Inhibitors” (Journal of Medicinal Chemistry, 2022).

What was measured:
[1] = tested on: recombinant soluble tetrameric N1 and N9 proteins (neuraminidase); type: biochemical; settings: for IC50: read-out: inhibition of recombinant NA tetramers in enzymatic MUNANA assay (IC50 μM)
[2] = tested on: Neth09H1N1 virus infection of MDCK cells; type: cell-based, Influenza virus A/Netherlands/602/2009 (Neth09H1N1)
[3] = molecular target: NA of the whole Neth09H1N1 virus (Influenza A virus, UniProt C3PSV3); type: biochemical, Influenza virus A/Netherlands/602/2009 (Neth09H1N1); settings: for IC50: read-out: inhibition of NA of the whole virus in enzymatic MUNANA assay (IC50 μM)
[4] = molecular target: Recombinant soluble N9 protein (N9 Spain) neuraminidase tetramer (Influenza A virus, UniProt K9MBB0); type: biochemical, Influenza A virus A/Anascrecca/Spain/1460/2008(H7N9)
[5] = tested on: HA on virus particle (Neth09H1N1); type: binding, Influenza virus A/Netherlands/602/2009 (Neth09H1N1)
NA of Neth09H1N1 virus = type: biochemical, Influenza virus A/Netherlands/602/2009 (Neth09H1N1)
[6] = tested on: HA on virus particle (Neth09H1N1); settings: cited from earlier work

SMILES	IC50 [1]	CPE assay [2]	CPE reduction assay on MDCK cells, lowest concentration that inhibits CPE formation [2]	IC50 [3]	inhibition of virus-receptor binding (HA inhibition) by BLI [5]	other results
C#CCCCC[C@H](CC)O[C@@H]1OC(C(=O)O)=C[C@H](O)[C@H]1NC(C)=O [Compound 12]	6.4 ± 1 µM	>5 mM	>5 µM	2.33 ± 0.005 µM	significant HA binding	potency difference to OC (OC more potent) [1]: ca. 600 fold; potency difference to OC (OC more potent) [3]: ca. 600 fold; reduction of potency relative to parent OCM [4]: 6 fold
C#CCCCC[C@H](CC)O[C@H]1OC(C(=O)O)=C[C@H](O)[C@H]1NC(C)=O [Compound 14]						IC50, NA (N9 Spain) MUNANA enzyme inhibition [4]: no inhibition
C#CCCCC[C@@H](CC)O[C@H]1OC(C(=O)O)=C[C@H](O)[C@H]1NC(C)=O [Compound 15]						IC50, NA (N9 Spain) MUNANA enzyme inhibition [4]: no inhibition
CC[C@@H](CCCCc1cn([C@H]2[C@H](OC(C)=O)[C@@H](OC(C)=O)[C@H](n3cc(CCCC[C@H](CC)O[C@@H]4OC(C(=O)O)=C[C@H](O)[C@H]4NC(C)=O)nn3)O[C@@H]2COC(C)=O)nn1)O[C@@H]1OC(C(=O)O)=C[C@H](O)[C@H]1NC(C)=O [Compound 17a]	24.4 ± 17.5 µM	>5 mM	>5 µM	9.4 ± 0.4 µM		
CC[C@@H](CCCCc1cn([C@H]2[C@H](O)[C@@H](O)[C@H](n3cc(-c4ccc(-c5cn([C@H]6[C@H](O)[C@@H](O)[C@H](n7cc(-c8ccc(-c9cn([C@@H]%10O[C@H](CO)[C@@H](n%11cc(CCCC[C@H](CC)O[C@@H]%12OC(C(=O)O)=C[C@H](O)[C@H]%12NC(C)=O)nn%11)[C@H](O)[C@H]%10O)nn9)cc8)nn7)O[C@@H]6CO)nn5)cc4)nn3)O[C@@H]2CO)nn1)O[C@@H]1OC(C(=O)O)=C[C@H](O)[C@H]1NC(C)=O [Compound 21]	1.3 ± 0.4 µM	0.45 ± 0.4 mM	0.45 ± 0.4 µM	0.11 ± 0.004 µM	largest effect	potency difference to OC (OC more potent) [1]: ca. 100 fold; amount needed to prevent cell killing (CPE) relative to IC50 in MUNANA assay with the whole virus [2]: 4 fold; better CPE inhibitor than OC [2]: ca. 2 fold; multivalency enhancement in comparison with monovalent 12 [3]: 20–30 fold; potency difference to OC (OC more potent) [3]: ca. 25 fold; inhibition of virus binding to the BLI sensor, compound alone [5]: sufficient to prevent apparent viral binding to the sensor; inhibition of virus-receptor binding by BLI in the presence of OC (Figure 5a) [5]: inhibited virus-receptor binding; NA inhibition judged from virus re-binding to regenerated sensor (NA of Neth09H1N1 virus): able to inhibit the NA
CC[C@@H](CCCCc1cn([C@H]2[C@H](O)[C@@H](O)[C@H](n3cc(-c4ccc(-c5cn([C@@H]6O[C@H](CO)[C@@H](n7cc(-c8cc(O)c(-c9cn([C@@H]%10O[C@H](CO)[C@@H](n%11cc(-c%12ccc(-c%13cn([C@@H]%14O[C@H](CO)[C@@H](n%15cc(CCCC[C@H](CC)O[C@@H]%16OC(C(=O)O)=C[C@H](O)[C@H]%16NC(C)=O)nn%15)[C@H](O)[C@H]%14O)nn%13)cc%12)nn%11)[C@H](O)[C@H]%10O)nn9)cc8O)nn7)[C@H](O)[C@H]6O)nn5)cc4)nn3)O[C@@H]2CO)nn1)O[C@@H]1OC(C(=O)O)=C[C@H](N)[C@H]1NC(C)=O [Compound 24]	10.6 ± 1.7 µM	0.84 ± 0.4 mM	0.84 ± 0.4 µM	4.7 ± 0.9 µM	did not have increased inhibitory activity compared to monovalent 12	amount needed to prevent cell killing (CPE) relative to IC50 in MUNANA assay with the whole virus [2]: 0.2 fold
CCC(CC)O[C@@H]1C=C(C(=O)O)C[C@H](N)[C@H]1NC(C)=O [OC, oseltamivir carboxylate, reference compound]		1.0 ± 0.4 mM	1.0 ± 0.4 µM	0.004 ± 0.001 µM		interference with HA-receptor binding [6]: does not interfere with HA-receptor binding
CCC(CC)O[C@@H]1OC(C(=O)O)=C[C@H](O)[C@H]1NC(C)=O [OCM, reference compound]					can be observed	
